Results from patent publication US11452725B2, “Chiral diaryl macrocycles and uses thereof” (TURNING POINT THERAPEUTICS, INC., priority 2015, dated 2022).

Legend:
SNARK = target: T1, SNARK (Homo sapiens, UniProt Q9H093); test: Biochemical kinase assay (Reaction Biology); conditions: 10 μM ATP
T1 construct: purchased Reaction Biology Corporation
Protocol: (§2) Specific kinase/substrate pairs along with required cofactors were prepared in reaction buffer; 20 mM Hepes pH 7.5, 10 mM MgCl2, 1 mM EGTA, 0.02% Brij35, 0.02 mg/ml BSA, 0.1 mM Na3VO4, 2 mM DTT, 1% DMSO (for specific details of individual kinase reaction components see Supplementary Table 2). Compounds were delivered into the reaction, followed ˜20 minutes later by addition of a mixture of ATP (Sigma, St. Louis Mo.) and ^33P ATP (Perkin Elmer, Waltham Mass.) to a final concentration of 10 μM. Reactions were carried out at room temperature for 120 min, followed by spotting of the reactions onto P81 ion exchange filter paper (Whatman Inc., Piscataway, N.J.). […] IC50 values and curve fits were obtained using Prism (GraphPad Software).

RET = target: T2, RET (Homo sapiens, UniProt P07949); test: Biochemical kinase assay (Reaction Biology); conditions: 10 μM ATP
T2 construct: purchased Reaction Biology Corporation (contract assay)
Protocol: as §2

MARK3 = target: T3, MARK3 (Homo sapiens, UniProt P27448); test: Biochemical kinase assay (Reaction Biology); conditions: 10 μM ATP
T3 construct: purchased Reaction Biology Corporation (contract assay)
Protocol: as §2

SET-2 cell line = test: Cell proliferation assay (CellTiter-Glo); assay type: cell-based; conditions: Homo sapiens, 72 hours, JAK2 V617F mutation
Protocol: Two thousand cells per well were seeded in 384 well white plate for 24 hrs, and then treated with compounds for 72 hours (37° C., 5% CO2). Cell proliferation was measured using CellTiter-Glo luciferase-based ATP detection assay (Promega) following the manufactures's protocol. IC50 determinations were performed using GraphPad Prism software (GraphPad, Inc., San Diego, Calif.).

[1] = test system: Ba/F3 EML4-ALK wild type cell line; test: Cell proliferation assay (CellTiter-Glo); assay type: cell-based; conditions: Mus musculus, 72 hours
[2] = test system: Ba/F3 EML4-ALK L1152P cell line; test: Cell proliferation assay (CellTiter-Glo); assay type: cell-based; conditions: Mus musculus, 72 hours
[3] = test system: Ba/F3 SDC4-ROS1 G2032R cell line; test: Cell proliferation assay (CellTiter-Glo); assay type: cell-based; conditions: Mus musculus, BaF3; 72 hours
AKT = test: Immunoblotting downstream signaling, Karpas-299 cells; assay type: cell-based; conditions: Homo sapiens, read-out: downstream AKT phosphorylation IC50
Protocol: (§1) NSCLC cell line H2228 (harboring endogenous EML4-ALK fusion gene), HCC78 cells (harboring endogenous SLC34A2-ROS1 fusion gene), Karpas-299 cells (harboring endogenous NPM-ALK fusion gene) or SET-2 (harboring endogenous JAK2V617F activating mutation) were cultured in RPMI medium, and KM12 (harboring endogenous TPM3-TRKA fusion gene) cell line was cultured in DMEM medium, both supplemented with 10% fetal bovine serum and 100 U/mL of penicillin/streptomycin. Ba/F3 and NIH3T3 cells stably expressing ALK or ROS1 (WT or mutant) were culture as mentioned above. […] Protein lysates (approximately 20 μg) was resolved on 4-12% Bolt Bis-Tris precasted gels with MES running buffer (Life Technologies), transferred to nitrocellulose membranes using Trans-Blot Turbo Transfer System (Bio-Rad) and detected with antibodies targeting phosphorylated ALK Y1604 (Cell Signaling Technology), total ALK (Cell Signaling Technology), phosphorylated ROS1 and total ROS1 (Cell Signaling Technology), phosphorylated TRK A/B (Cell Signaling Technology), total TRKA antibody (Santa Cruz Biotechnology), phosphorylated STAT3 and STAT5, total STAT3 and STAT5 (Cell Signaling Technology), phosphorylated AKT (Cell Signaling Technology), total AKT (Cell Signaling Technology), phosphorylated ERK (Cell Signaling Technology), total ERK (Cell Signaling Technology) and Tubulin (Sigma). […]

STAT3 = test: as above; assay type: cell-based; conditions: Homo sapiens, read-out: downstream STAT3 phosphorylation IC50
Protocol: as §1

[4] = test system: NIH3T3 EML4-ALK WT tumors; test: NIH3T3 EML4-ALK WT subcutaneous xenograft model; assay type: in vivo, athymic nude mice; conditions: 12 days
KM12 tumors = test: KM12 colorectal cancer subcutaneous xenograft model; assay type: in vivo, athymic nude mice; conditions: seven days
Protocol: Female athymic nude mice and SCID/Beige mice (5-8 weeks of age) were obtained from Charles River Laboratory and were housed in Innovive IVC disposable cages on HEPA filtered ventilated racks with ad libitum access to rodent chow and water. Five million cells in 100 μL, serum-free medium were implanted subcutaneously in the right flank region of the mouse. […] KM12 cells, NIH3T3 EML4-ALK wild type mutant cells, and NIH3T3 SCD4-ROS1 wild type mutant cells were implanted into the athymic nude mice, respectively. All models except KM12 were implanted with 50% matrigel (Corning, Inc) in the medium. Tumor size and body weight were measured on designated days. Tumor size was measured with an electronic caliper and tumor volume was calculated as the product of length*width^2*0.5.

[5] = test system: Ba/F3 EML4-ALK G1202R tumors; test: Ba/F3 EML4-ALK G1202R subcutaneous xenograft model; assay type: in vivo, SCID/Beige mice; conditions: 75 mg/kg BID orally, 17 days
[6] = Body weight of mice in xenograft studies; assay type: in vivo
Protocol: Female athymic nude mice and SCID/Beige mice (5-8 weeks of age) were obtained from Charles River Laboratory and were housed in Innovive IVC disposable cages on HEPA filtered ventilated racks with ad libitum access to rodent chow and water. Five million cells in 100 μL, serum-free medium were implanted subcutaneously in the right flank region of the mouse. Karpas299 cells were implanted into the SCID/Beige mice. KM12 cells, NIH3T3 EML4-ALK wild type mutant cells, and NIH3T3 SCD4-ROS1 wild type mutant cells were implanted into the athymic nude mice, respectively. All models except KM12 were implanted with 50% matrigel (Corning, Inc) in the medium. Tumor size and body weight were measured on designated days. Tumor size was measured with an electronic caliper and tumor volume was calculated as the product of length*width^2*0.5.
Female athymic nude mice and SCID/Beige mice (5-8 weeks of age) were obtained from Charles River Laboratory and were housed in Innovive IVC disposable cages on HEPA filtered ventilated racks with ad libitum access to rodent chow and water. Five million cells in 100 μL serum-free medium were implanted subcutaneously in the right flank region of the mouse. Ba/F3 EML4-ALK wild type and G1202R mutant cells, Ba/F3 CD74-ROS1 wild type and G2032R mutant cells were implanted into the SCID/Beige mice. NIH3T3 CD74-ROS1 G2032 mutant cells, NIH3T3 LMNA-TRKA wild type and G595R mutant cells were implanted into the athymic nude mice, respectively. All models were implanted with 50% matrigel (Corning, Inc) in the medium. Tumor size and body weight were measured on designated days. Tumor size was measured with an electronic caliper and tumor volume was calculated as the product of length*width^2*0.5.

[7] = Example 13: 15 mg/kg BID orally
[8] = Example 13: 75 mg/kg BID orally

T1 sequence (Q9H093 whole entry): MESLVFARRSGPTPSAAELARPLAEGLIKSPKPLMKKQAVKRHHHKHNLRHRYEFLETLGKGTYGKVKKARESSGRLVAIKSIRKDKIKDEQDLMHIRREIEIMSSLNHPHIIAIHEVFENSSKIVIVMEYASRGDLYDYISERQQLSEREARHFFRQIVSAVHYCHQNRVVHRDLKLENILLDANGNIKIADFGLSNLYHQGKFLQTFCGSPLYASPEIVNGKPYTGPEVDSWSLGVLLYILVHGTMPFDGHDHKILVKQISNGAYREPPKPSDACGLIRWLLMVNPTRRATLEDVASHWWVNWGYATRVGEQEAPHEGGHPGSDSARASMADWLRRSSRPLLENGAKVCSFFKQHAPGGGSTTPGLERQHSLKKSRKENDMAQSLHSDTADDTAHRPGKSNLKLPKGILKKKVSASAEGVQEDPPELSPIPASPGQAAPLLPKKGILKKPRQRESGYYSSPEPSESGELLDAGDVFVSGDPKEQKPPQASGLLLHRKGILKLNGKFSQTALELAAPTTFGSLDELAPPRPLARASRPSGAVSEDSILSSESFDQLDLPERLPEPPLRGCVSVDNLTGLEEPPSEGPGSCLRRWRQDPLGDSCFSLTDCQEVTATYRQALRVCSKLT
T2 sequence (P07949 29-1114): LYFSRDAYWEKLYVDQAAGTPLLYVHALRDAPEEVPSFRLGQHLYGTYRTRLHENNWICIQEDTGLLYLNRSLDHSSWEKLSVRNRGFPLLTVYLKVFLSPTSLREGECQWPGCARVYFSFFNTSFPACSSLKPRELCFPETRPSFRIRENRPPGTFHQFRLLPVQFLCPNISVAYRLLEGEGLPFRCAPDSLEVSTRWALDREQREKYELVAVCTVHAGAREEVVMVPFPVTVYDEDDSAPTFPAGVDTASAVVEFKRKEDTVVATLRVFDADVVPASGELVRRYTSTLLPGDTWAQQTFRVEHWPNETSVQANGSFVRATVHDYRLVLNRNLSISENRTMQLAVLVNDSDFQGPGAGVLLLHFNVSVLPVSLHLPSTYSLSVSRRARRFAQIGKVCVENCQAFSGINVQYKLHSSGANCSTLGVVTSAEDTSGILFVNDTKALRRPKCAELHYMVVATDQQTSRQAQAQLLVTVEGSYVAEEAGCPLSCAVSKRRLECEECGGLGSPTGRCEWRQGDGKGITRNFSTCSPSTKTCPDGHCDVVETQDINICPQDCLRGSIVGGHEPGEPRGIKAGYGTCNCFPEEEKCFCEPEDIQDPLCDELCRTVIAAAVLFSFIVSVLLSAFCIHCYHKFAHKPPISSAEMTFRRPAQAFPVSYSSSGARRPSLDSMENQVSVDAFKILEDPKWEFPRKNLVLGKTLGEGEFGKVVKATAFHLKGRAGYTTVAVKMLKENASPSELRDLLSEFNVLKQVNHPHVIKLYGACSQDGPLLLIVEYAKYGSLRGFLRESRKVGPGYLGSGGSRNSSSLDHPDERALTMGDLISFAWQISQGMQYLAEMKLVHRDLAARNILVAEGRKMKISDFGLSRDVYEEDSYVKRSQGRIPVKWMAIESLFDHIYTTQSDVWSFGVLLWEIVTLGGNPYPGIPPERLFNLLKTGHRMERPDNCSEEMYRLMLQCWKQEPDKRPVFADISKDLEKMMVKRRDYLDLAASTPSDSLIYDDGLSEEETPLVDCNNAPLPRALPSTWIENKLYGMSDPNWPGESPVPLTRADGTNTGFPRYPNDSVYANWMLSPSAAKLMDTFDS
T3 sequence (P27448 whole entry): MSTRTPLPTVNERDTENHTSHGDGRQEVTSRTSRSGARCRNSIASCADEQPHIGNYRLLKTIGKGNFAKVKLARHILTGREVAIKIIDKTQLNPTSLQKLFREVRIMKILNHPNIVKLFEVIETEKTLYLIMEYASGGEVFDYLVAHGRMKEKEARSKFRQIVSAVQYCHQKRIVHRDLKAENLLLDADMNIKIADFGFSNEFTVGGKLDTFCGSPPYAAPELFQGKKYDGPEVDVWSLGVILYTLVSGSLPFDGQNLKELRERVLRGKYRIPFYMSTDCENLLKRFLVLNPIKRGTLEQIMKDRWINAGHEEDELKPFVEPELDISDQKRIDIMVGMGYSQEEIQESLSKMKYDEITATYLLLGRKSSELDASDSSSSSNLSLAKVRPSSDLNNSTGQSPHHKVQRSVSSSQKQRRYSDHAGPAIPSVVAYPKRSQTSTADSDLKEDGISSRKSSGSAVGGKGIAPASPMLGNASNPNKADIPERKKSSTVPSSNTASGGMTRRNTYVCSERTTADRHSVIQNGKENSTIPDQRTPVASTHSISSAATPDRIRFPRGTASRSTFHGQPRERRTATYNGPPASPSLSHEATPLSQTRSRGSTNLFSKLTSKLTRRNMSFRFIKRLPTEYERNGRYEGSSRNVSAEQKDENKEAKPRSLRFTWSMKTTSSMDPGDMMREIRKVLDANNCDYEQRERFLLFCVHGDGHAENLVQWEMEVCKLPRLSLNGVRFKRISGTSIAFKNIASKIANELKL

With C[C@H]1CNC(=O)c2cnn3ccc(nc23)N[C@H](C)c2cc(F)ccc2O1 [Compound 1, (7S,13R)-11-fluoro-7,13-dimethyl-6,7,13,14-tetrahydro-1,15-ethenopyrazolo[4,3-f][1,4,8,10]benzoxatriazacyclotridecin-4(5H)-one] the IC50 (SNARK) was 0.013 µM, the IC50 (RET) was 0.0471 µM and the IC50 (MARK3) was 0.512 µM. The IC50 (SET-2 cell line) was 0.169 µM, the IC50 [1] was 0.0178 µM and the IC50 [2] was 0.085 µM. It also gave an IC50 [3] of 0.005 µM, an IC50 (AKT) of 0.001 to 0.003 µM and an IC50 (STAT3) of 0.001 to 0.003 µM. For the same molecule, the “mice exhibiting tumor regression” value ([4]; 15 mg/kg/BID orally) was 2 of 8, the “mice exhibiting tumor regression” value ([4]; 50 mg/kg/BID orally) was 8 of 8 and the “tumor regression (REG)” value ([4]; 50 mg/kg/BID orally) was 41%. The “mice exhibiting tumor regression” value (KM12 tumors; [7]) was 8 of 8, the “tumor regression (REG)” value (KM12 tumors; [7]) was 13% and the “mice exhibiting tumor regression” value (KM12 tumors; [8]) was 5 of 8. For the same molecule, the “tumor regression (REG)” value (KM12 tumors; [8]) was 11%, the “Tumor growth inhibition (TGI)” value (KM12 tumors; Example 15: 1 mg/kg BID orally) was 77% and the “mice exhibiting tumor regression” value (KM12 tumors; Example 15: 3 mg/kg BID orally) was 2 of 10. The “mice exhibiting tumor regression” value (KM12 tumors; Example 15: 15 mg/kg BID orally) was 5 of 10, the “tumor regression (REG)” value (KM12 tumors; Example 15 dose dependent study: 15 mg/kg BID orally) was 1% and the “mice exhibiting tumor regression” value [5] was 4 of 8. For the same molecule, the “Body weight of the mice” value ([6]; Ba/F3 CD74-ROS1 G2032R model, 15 and 75 mg/kg BID, 11 days) was “no body weight loss was observed”, the “Body weight of the mice” value ([6]; Ba/F3 CD74-ROS1 WT model, 15 and 75 mg/kg BID, 12 days) was “no body weight loss was observed” and the “Body weight of the mice” value ([6]; Ba/F3 EML4-ALK G1202R model, 15 and 75 mg/kg BID, 17 days) was “no body weight loss was observed”. For the same molecule, the “Body weight of the mice” value ([6]; Ba/F3 EML4-ALK WT model, 15 and 75 mg/kg BID, 14 days) was “no body weight loss was observed”, the “Body weight of the mice” value ([6]; KM12 model Example 13, 15 and 75 mg/kg BID, seven days) was “No loss of body weight” and the “Body weight of the mice” value ([6]; KM12 model Example 15, 1, 3 and 15 mg/kg BID, seven days) was “No loss of body weight”. The “Body weight of the mice” value ([6]; Karpas 299 model, 15 and 50 mg/kg BID, seven days) was “no body weight loss was observed”, the “Body weight of the mice” value ([6]; NIH3T3 EML4-ALK WT model, 15 and 50 mg/kg BID, 12 days) was “no body weight loss was observed” and the “Body weight of the mice” value ([6]; NIH3T3 LMNA-TRKA G595R model, 3, 15 and 60 mg/kg BID, five days) was “no body weight loss was observed”. For the same molecule, the “Body weight of the mice” value ([6]; NIH3T3 LMNA-TRKA WT model, 3 and 15 mg/kg BID, five days) was “No loss of body weight”.
